From ChEMBL document CHEMBL4387741, “Optimization of novel reversible Bruton's tyrosine kinase inhibitors identified using Tethering-fragment-based screens” (Bioorg Med Chem, 2019)

Experiments:
[1] = target: Ribosomal protein S6 kinase alpha-5 (Homo sapiens) (UniProt O75582); test: Inhibition of wild-type human partial length C-terminal RPS6KA5 kinase domain 2 (V390 to T718 residues) expressed in bacterial expression system at 1 uM by Kinomescan method relative to control
[2] = target: Serine/threonine-protein kinase RIO2 (Homo sapiens) (UniProt Q9BVS4); test: Inhibition of wild-type human partial length RIOK2 (M1 to D313 residues) expressed in mammalian expression system at 1 uM by Kinomescan method relative to control
[3] = target: TGF-beta receptor type-1 (Homo sapiens) (UniProt P36897); test: Inhibition of wild-type human partial length TGFBR1 (D179 to M503 residues) expressed in bacterial expression system at 1 uM by Kinomescan method relative to control
[4] = target: Aurora kinase B (Homo sapiens) (UniProt Q96GD4); test: Inhibition of wild-type human partial length AURKB (D25 to A303 residues) expressed in mammalian expression system at 1 uM by Kinomescan method relative to control
[5] = target: Protein kinase C iota type (Homo sapiens) (UniProt P41743); test: Inhibition of wild-type human partial length PRKCI (H215 to V587 residues) expressed in mammalian expression system at 1 uM by Kinomescan method relative to control
[6] = target: Rho-associated protein kinase 2 (Homo sapiens) (UniProt O75116); test: Inhibition of wild-type human partial length ROCK2 (M1 to T431 residues) expressed in mammalian expression system at 1 uM by Kinomescan method relative to control
[7] = target: Serine/threonine-protein kinase B-raf (Homo sapiens) (UniProt P15056); test: Inhibition of wild-type human partial length BRAF (S429 to E741 residues) expressed in mammalian expression system at 1 uM by Kinomescan method relative to control
[8] = target: ALK tyrosine kinase receptor (Homo sapiens) (UniProt Q9UM73); test: Inhibition of wild-type human partial length ALK (I1088 to E1409 residues) expressed in mammalian expression system at 1 uM by Kinomescan method relative to control
[9] = target: Serine/threonine-protein kinase 35 (Homo sapiens) (UniProt Q8TDR2); test: Inhibition of wild-type human partial length STK35 (G182 to A534 residues) expressed in bacterial expression system at 1 uM by Kinomescan method relative to control
[10] = target: Serine/threonine-protein kinase OSR1 (Homo sapiens) (UniProt O95747); test: Inhibition of wild-type human full length OSR1 (M1 to S527 residues) expressed in mammalian expression system at 1 uM by Kinomescan method relative to control
[11] = target: Phosphatidylinositol 4-phosphate 5-kinase type-1 gamma (Homo sapiens) (UniProt O60331); test: Inhibition of wild-type human partial length PIP5K1C (M1 to T668 residues) expressed in mammalian expression system at 1 uM by Kinomescan method relative to control
[12] = target: High affinity nerve growth factor receptor (Homo sapiens) (UniProt P04629); test: Inhibition of wild-type human partial length TRKA (G475 to G790 residues) expressed in mammalian expression system at 1 uM by Kinomescan method relative to control
[13] = target: Non-receptor tyrosine-protein kinase TYK2 (Homo sapiens) (UniProt P29597); test: Inhibition of wild-type human partial length TYK2 JH2 pseudokinase domain (G556 to D888 residues) expressed in mammalian expression system at 1 uM by Kinomescan method relative to control
[14] = target: Serine/threonine-protein kinase PLK4 (Homo sapiens) (UniProt O00444); test: Inhibition of wild-type human partial length PLK4 (M1 to S273 residues) expressed in mammalian expression system at 10 uM by Kinomescan method relative to control
[15] = target: Serine/threonine-protein kinase PAK 4 (Homo sapiens) (UniProt O96013); test: Inhibition of wild-type human partial length PAK4 (Q144 to R438 residues) expressed in bacterial expression system at 10 uM by Kinomescan method relative to control
[16] = system: Epidermal growth factor receptor (Homo sapiens), P00533 [L858R,T790M]; test: Inhibition of human partial length EGFR L858R/T790M double mutant (R669 to V1011 residues) expressed in mammalian expression system at 10 uM by Kinomescan method relative to control
[17] = target: Serine/threonine-protein kinase 32A (Homo sapiens) (UniProt Q8WU08); test: Inhibition of wild-type human full length YANK1 (M1 to L396 residues) expressed in mammalian expression system at 10 uM by Kinomescan method relative to control
[18] = target: Cyclin-dependent kinase-like 3 (Homo sapiens) (UniProt Q8IVW4); test: Inhibition of wild-type human partial length CDKL3 (M1 to D327 residues) expressed in bacterial expression system at 10 uM by Kinomescan method relative to control
[19] = target: Epidermal growth factor receptor (Homo sapiens) (UniProt P00533); test: Inhibition of wild-type human partial length EGFR (R669 to V1011 residues) expressed in bacterial expression system at 10 uM by Kinomescan method relative to control
[20] = target: AP2-associated protein kinase 1 (Homo sapiens) (UniProt Q2M2I8); test: Inhibition of human wild-type AAK1 (G25 to L333 residues) expressed in bacterial expression system at 10 uM by Kinomescan method relative to control
[21] = target: Fibroblast growth factor receptor 2 (Homo sapiens) (UniProt P21802); test: Inhibition of wild-type human partial length FGFR2 (D457 to E769 residues) expressed in bacterial expression system at 10 uM by Kinomescan method relative to control
[22] = system: Phosphatidylinositol 4,5-bisphosphate 3-kinase catalytic subunit alpha isoform (Homo sapiens), P42336 [E545K]; test: Inhibition of human partial length PIK3CA E545K mutant (R108 to N1068 residues) expressed in mammalian expression system at 10 uM by Kinomescan method relative to control
[23] = Solubility of the compound at pH 6.8; format: physicochemical; details: buffer
[24] = target: Calcium-dependent protein kinase 1 (Plasmodium falciparum) (UniProt P62344); test: Inhibition of wild-type Plasmodium falciparum full length CDPK1 (M1 to S524 residues) expressed in mammalian expression system at 10 uM by Kinomescan method relative to control
[25] = target: Calcium/calmodulin-dependent protein kinase type II subunit alpha (Homo sapiens) (UniProt Q9UQM7); test: Inhibition of wild-type human partial length CAMK2A (M1 to K328 residues) expressed in bacterial expression system at 10 uM by Kinomescan method relative to control
[26] = target: Mitogen-activated protein kinase 12 (Homo sapiens) (UniProt P53778); test: Inhibition of wild-type human full length p38-gamma (M1 to L367 residues) expressed in mammalian expression system at 10 uM by Kinomescan method relative to control
[27] = target: Protein kinase C delta type (Homo sapiens) (UniProt Q05655); test: Inhibition of wild-type human partial length PRKCD (Q328 to D676 residues) expressed in bacterial expression system at 10 uM by Kinomescan method relative to control
Chain of Protein kinase C delta type (Homo sapiens) (Q05655 whole entry, looked up, the tested form may be a part): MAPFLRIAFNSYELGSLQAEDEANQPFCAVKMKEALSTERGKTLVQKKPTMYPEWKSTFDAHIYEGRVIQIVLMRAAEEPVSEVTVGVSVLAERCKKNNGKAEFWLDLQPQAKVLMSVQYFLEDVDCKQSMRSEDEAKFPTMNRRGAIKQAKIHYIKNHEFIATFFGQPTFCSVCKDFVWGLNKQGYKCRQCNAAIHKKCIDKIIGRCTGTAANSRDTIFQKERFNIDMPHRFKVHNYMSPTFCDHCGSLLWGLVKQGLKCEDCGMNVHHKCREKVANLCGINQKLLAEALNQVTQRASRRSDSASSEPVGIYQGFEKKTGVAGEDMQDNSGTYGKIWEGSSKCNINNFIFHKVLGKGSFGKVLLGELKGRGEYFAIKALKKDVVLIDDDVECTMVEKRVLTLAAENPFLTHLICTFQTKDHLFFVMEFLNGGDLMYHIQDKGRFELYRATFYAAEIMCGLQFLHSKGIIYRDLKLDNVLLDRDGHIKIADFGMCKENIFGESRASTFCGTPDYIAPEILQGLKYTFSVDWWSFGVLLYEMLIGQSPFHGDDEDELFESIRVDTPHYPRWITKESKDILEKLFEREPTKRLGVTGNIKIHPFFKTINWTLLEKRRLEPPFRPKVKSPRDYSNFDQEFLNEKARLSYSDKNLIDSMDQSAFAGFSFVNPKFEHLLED

Chain of Non-receptor tyrosine-protein kinase TYK2 (Homo sapiens) (P29597 whole entry, the tested form may be a part): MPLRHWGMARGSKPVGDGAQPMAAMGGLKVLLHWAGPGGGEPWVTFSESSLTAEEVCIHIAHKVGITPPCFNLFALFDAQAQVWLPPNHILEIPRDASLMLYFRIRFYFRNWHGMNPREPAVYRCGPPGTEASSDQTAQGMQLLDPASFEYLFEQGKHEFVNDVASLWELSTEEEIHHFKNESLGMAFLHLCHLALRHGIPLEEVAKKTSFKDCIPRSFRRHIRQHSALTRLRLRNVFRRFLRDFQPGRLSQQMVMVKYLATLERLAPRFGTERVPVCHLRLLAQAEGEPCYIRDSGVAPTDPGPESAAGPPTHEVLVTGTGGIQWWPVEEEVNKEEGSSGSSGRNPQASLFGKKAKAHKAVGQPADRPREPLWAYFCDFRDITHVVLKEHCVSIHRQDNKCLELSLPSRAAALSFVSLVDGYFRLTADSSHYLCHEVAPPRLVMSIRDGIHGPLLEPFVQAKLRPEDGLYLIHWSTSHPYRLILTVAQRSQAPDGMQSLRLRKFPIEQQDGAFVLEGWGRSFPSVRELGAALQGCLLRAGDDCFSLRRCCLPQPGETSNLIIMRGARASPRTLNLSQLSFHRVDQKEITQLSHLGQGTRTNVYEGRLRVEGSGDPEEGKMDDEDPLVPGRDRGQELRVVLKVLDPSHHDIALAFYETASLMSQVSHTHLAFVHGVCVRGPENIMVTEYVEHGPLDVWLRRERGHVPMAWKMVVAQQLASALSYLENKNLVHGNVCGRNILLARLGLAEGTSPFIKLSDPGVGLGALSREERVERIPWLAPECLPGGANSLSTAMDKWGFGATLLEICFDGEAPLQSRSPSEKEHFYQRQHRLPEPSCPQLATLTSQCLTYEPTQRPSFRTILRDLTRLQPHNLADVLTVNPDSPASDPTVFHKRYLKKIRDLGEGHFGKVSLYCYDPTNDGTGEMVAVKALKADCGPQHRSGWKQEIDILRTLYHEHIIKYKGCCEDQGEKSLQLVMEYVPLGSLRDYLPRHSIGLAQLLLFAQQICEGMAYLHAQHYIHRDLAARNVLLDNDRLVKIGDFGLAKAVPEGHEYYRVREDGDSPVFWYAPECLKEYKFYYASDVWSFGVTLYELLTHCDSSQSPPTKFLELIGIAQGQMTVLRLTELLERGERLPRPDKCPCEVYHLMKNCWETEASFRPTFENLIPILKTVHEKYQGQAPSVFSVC
Chain of Phosphatidylinositol 4-phosphate 5-kinase type-1 gamma (Homo sapiens) (O60331 whole entry, the tested form may be a part): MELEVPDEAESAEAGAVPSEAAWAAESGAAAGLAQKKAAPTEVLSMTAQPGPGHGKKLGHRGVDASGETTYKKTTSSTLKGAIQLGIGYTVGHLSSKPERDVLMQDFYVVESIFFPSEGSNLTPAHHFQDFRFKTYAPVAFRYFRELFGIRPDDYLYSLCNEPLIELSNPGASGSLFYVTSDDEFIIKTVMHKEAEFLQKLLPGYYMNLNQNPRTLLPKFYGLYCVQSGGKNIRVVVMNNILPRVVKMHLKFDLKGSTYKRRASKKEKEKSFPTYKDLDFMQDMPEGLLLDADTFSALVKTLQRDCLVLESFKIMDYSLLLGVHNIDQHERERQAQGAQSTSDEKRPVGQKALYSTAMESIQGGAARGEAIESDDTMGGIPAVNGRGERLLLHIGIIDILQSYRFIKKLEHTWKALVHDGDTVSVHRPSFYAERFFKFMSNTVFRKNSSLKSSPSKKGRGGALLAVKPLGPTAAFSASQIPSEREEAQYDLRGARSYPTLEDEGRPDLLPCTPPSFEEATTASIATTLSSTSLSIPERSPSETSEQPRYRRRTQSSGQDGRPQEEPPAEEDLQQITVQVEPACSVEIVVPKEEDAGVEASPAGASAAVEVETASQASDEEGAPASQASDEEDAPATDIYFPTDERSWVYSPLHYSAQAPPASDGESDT
Chain of TGF-beta receptor type-1 (Homo sapiens) (P36897 whole entry, the tested form may be a part): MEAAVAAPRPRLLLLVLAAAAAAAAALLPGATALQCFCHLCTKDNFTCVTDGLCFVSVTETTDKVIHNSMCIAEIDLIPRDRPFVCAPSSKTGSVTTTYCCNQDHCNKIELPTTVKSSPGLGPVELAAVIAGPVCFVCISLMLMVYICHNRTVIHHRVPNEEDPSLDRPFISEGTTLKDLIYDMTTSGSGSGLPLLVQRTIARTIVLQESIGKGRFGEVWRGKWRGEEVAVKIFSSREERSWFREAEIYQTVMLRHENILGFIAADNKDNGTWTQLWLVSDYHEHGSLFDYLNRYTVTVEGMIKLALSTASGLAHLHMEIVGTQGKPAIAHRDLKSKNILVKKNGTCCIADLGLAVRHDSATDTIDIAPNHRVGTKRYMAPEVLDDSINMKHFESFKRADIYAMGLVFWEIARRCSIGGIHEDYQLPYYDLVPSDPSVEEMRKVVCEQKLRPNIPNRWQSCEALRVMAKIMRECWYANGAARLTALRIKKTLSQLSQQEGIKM
Chain of Serine/threonine-protein kinase B-raf (Homo sapiens) (P15056 whole entry, the tested form may be a part): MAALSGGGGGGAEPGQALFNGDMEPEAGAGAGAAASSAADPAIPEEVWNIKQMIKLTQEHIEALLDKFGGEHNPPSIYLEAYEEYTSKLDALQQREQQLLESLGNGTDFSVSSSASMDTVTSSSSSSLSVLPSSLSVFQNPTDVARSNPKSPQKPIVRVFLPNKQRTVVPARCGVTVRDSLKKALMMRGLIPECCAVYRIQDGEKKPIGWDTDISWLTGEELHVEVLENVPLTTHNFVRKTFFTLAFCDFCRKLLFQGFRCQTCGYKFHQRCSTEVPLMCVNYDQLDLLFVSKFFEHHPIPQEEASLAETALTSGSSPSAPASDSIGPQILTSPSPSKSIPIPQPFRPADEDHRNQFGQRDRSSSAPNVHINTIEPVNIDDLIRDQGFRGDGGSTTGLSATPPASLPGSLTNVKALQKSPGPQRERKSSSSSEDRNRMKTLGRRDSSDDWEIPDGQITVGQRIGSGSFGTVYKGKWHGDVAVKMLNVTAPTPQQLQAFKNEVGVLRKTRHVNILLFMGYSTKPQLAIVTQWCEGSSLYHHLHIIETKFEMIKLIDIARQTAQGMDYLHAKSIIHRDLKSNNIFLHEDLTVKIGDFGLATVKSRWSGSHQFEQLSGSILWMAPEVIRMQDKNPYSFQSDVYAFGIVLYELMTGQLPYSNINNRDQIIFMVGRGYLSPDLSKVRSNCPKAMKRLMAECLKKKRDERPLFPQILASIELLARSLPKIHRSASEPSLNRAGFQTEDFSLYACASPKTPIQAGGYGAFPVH
Chain of Protein kinase C iota type (Homo sapiens) (P41743 whole entry, the tested form may be a part): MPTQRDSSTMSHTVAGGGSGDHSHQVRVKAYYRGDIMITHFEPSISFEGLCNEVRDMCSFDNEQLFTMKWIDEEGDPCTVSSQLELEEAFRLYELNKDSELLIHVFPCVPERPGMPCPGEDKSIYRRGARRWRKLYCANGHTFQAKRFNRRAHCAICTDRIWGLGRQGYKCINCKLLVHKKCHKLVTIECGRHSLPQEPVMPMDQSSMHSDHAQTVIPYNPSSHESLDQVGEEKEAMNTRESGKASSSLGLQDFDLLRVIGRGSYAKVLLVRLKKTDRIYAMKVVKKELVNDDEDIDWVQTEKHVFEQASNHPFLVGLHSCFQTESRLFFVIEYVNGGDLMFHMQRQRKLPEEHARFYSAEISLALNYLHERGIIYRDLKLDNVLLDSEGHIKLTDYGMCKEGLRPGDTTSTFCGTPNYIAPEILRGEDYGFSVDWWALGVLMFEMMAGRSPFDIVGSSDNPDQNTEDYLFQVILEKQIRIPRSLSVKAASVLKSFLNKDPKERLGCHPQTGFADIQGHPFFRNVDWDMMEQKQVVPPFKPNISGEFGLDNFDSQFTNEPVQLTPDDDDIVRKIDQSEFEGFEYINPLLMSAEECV
Chain of Serine/threonine-protein kinase PAK 4 (Homo sapiens) (O96013 whole entry, looked up, the tested form may be a part): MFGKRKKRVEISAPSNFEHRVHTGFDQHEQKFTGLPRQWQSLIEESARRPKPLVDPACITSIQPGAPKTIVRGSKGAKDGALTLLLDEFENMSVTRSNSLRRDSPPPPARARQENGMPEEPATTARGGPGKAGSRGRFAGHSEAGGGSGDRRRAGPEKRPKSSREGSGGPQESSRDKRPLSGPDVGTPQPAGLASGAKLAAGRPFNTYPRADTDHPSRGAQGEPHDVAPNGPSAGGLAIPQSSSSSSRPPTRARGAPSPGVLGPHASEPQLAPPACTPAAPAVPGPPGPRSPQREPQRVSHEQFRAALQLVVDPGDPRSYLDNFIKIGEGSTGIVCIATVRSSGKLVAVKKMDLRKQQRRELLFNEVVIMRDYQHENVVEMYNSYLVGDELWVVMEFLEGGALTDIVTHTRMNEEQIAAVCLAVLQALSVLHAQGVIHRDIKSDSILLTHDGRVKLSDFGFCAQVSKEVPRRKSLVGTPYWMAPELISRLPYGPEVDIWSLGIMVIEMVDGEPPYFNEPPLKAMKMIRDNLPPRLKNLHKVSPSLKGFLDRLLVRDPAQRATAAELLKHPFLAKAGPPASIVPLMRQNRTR

**Q.** What does the source list for `O=C(Nc1cccc([C@@H]2CN(c3ncnc4[nH]ccc34)CCN2CCO)c1)Nc1c(F)cccc1N1CCCC1`?
**A.** inhibition [1]: 96%; inhibition [2]: 92%; inhibition [3]: 71%; inhibition [4]: 4.4%; inhibition [5]: 54%; inhibition [6]: 67%; inhibition [7]: 86%; inhibition [8]: 98%; inhibition [9]: 100%; inhibition [10]: 100%; inhibition [11]: 70%; inhibition [12]: 56%; inhibition [13]: 71%

**Q.** Which inhibition [14] does the source give for `O=C(Nc1cccc([C@H]2CCCN(c3ncnc4[nH]ccc34)C2)c1)Nc1ccccc1N1CCCC1` here?
**A.** 4.9%

**Q.** What about the inhibition [15] of the same molecule?
**A.** 54%

**Q.** What about the inhibition [16] of the same molecule?
**A.** 83%

**Q.** What about the inhibition [17] of the same molecule?
**A.** 98%

**Q.** What about the inhibition [18] of the same molecule?
**A.** 97%

**Q.** And the inhibition [19]?
**A.** 88%

**Q.** And the inhibition [20]?
**A.** 26%

**Q.** And the inhibition [21]?
**A.** 24%

**Q.** And the inhibition [22]?
**A.** 64%

**Q.** And the solubility [23]?
**A.** < 1 µg/mL

**Q.** What about the inhibition [24] of the same molecule?
**A.** 9.9%

**Q.** What about the inhibition [25] of the same molecule?
**A.** 77%

**Q.** What about the inhibition [26] of the same molecule?
**A.** 68%

**Q.** And the inhibition [27]?
**A.** 100%
